Series [1] concerns diet-induced obese animals. The series is described as follows: Chronic administration by subcutaneous micro-osmotic pumps. Conditions: two weeks. The class given is in vivo, mice. The method, then: Chronic administration of peptide was evaluated using micro-osmotic pumps designed to deliver 0.5 μl/h (Alza Co.). Pumps were filled with peptide or vehicle and implanted subcutaneously in the intrascapular space in diet-induced obese animals. Mice were fed ad libitum and food intake and body weight were measured daily for two weeks. […] Cumulative body weight change (FIG. 2A) and cumulative food intake (FIG. 2B) with two-week treatment of NMU and NMS are shown.

The test system of series [2] is male diet-induced obese mice. In words: Acute feeding study with NMU and NMS. In kind it is in vivo. How it is done: (§1) Ad libitum fed male diet-induced obese mice obtained from Taconic Farms were weighed and dosed either i.p. or s.c. with NMS or NMU at about 30 minutes prior to the onset of the dark phase of the light cycle and provided with a pre-weighed aliquot of high fat diet (D12492: 60% kcal from fat: Research Diets, Inc.), which was then weighed two and 18 hours after the onset of the initial dark phase. Mice were weighed at the 18 hour (overnight) time point.

For series [3], the system named is wild-type, Nmur1 knockout, Nmur2 knockout and Nmur1/Nmur2 double knockout mice. In words: Acute feeding study in wild-type and Nmur knockout mice. In kind it is in vivo. The method, then:
as §1
NMUR1 knockout (Nmur1−/−) mice were generated using standard homologous recombination techniques. Nmur1 mice were subsequently transferred to Taconic Farms where they were either maintained on a 75% C57BL/6×25% 129S6/SvEv mixed genetic background or backcrossed 6 generations to C57BL/6. NMUR2 knockout (Nmur2−/−) mice were licensed from Deltagen Inc., San Mateo, Calif. and subsequently transferred to Taconic Farms were they were either maintained on a 75% C57BL/6×25% 129/OlaHsd mixed genetic background or backcrossed for 7 generations to C57BL/6. NMUR1 and NMUR2 double knockout (Nmur1&2−/−) mice were generated by crossing N6 Nmur1−/− mice to N7 Nmur2−/− mice. Mice were individually housed in Tecniplast cages in a conventional SPF facility. Mice were initially maintained on a regular chow diet and then early in their life were switched to a high fat diet (D12492) with ad libitum access to water in a 12-h light/12-h dark cycle.
The anorectic effects of NMS1 were mediated by both the NMUR1 and NMUR2 receptors. […] Effects on food intake (FIG. 9A) and body weight (FIG. 9B) are shown.

A short description of series [4]: Pharmacokinetic analysis using the FLIPR-based bioassay of plasma. The class given is in vivo. Conditions: mice, 10 mg/kg subcutaneously, FIG. 5. The method, then: Peptide exposure levels in dosed animals were measured using the bioassay. Animals were dosed subcutaneously and plasma was collected at various time points post-dose. The bioassay is a FLIPR-based assay that measures the concentration of peptide in plasma from animals dosed with hNMU-25 or NMS. The assay is run essentially as described above (Example 2) with the following modifications: sample preparation prior to the assay is performed on ice to minimize degradation of plasma samples. The assay was run with 4% plasma as the final concentration. A three-point titration was done with the dosed plasma and tested on human NMUR1-expressing cell lines using FLIPR. The response after sample addition was taken as the maximum fluorescence units minus the fluorescence immediately prior to stimulation for each well. In addition to a three-point titration of dosed plasma samples, a 16-point titration of the peptide (hNMU-25 or NMS) was run in 4% plasma (naive plasma) to serve as the standard. The concentration of the peptide in plasma was calculated based on extrapolations from the appropriate standard using the GraphPad Prism software.
In the experiment, the animals were dosed subcutaneously with 10 mg/kg of human NMU-25 or human NMS and plasma was collected at various time points post dose and measured in the Bioassay. […]

For series [5], the system named is male C57BL/6 diet-induced obese mice. The series is described as follows: Intraperitoneal glucose tolerance test (IPGTT). The class given is in vivo. Conditions: one and three mpk injected 30 minutes before IPGTT, glucose 2 g/kg i.p., either dosage level. The method, then:
Fourteen male C57BL/6 diet-induced obese mice (˜30 wk age) were used. Five hours before the experiment, food was removed, and clean cages were provided. Saline with or without NMS at one and three mpk were injected 30 minutes before the IPGTT and a blood sample was taken. Then glucose (2 g/kg) was injected intraperitoneally. Blood samples were taken after 15, 30, 60, 90, and 120 minutes and glucose levels were determined with the glucose oxidase method.

Consider “H-ILQRGSGTAAVDFTKKDHTATWGRPFFLFRPRN-NH2 [NMS, reference compound]”, for which the “effect on food intake and body weight compared with NMU” value in series [1] is recorded as “appeared to be greater than that observed for NMU”. Moreover, the body weight entry in series [1] (cumulative change, FIG. 2A) is “significantly reduced”; in series [2] (acute peripheral administration, 18 hour (overnight), FIG. 1B), “significantly reduced”. In addition, the food intake entry in series [1] (cumulative, FIG. 2B) is given as “significantly reduced”; in series [2] (acute peripheral administration (i.p. or s.c.), FIG. 1A), “significantly reduced”; in series [3] (Nmur1 knockout mice, highest dose tested) it was “modest but significant effect”; in series [3] (acute peripheral administration, Nmur1 knockout mice) it was “not in Nmur1 knockout mice”; in series [3] (acute peripheral administration, Nmur2 knockout mice) it was “significantly reduced”; in series [3] (acute peripheral administration, wild-type mice) it was “significantly reduced”. In addition, in series [2] (acute peripheral administration), the “anorectic effects compared with NMU” value was “appeared to be greater than the anorectic effects observed with NMU”. Besides, in series [4], the “metabolic stability in vivo compared to NMU” value was “greater metabolic stability”. Moreover, the “glucose metabolism (IPGTT)” value in series [5] is “enhanced glucose metabolism”.

For the origin of these results see patent US20110301079A1, “NEUROMEDIN U RECEPTOR AGONISTS AND USES THEREOF” (Instituto di Ricerche di Biologia Molecolare P. Angeletti …, priority 2007, published 2011).
